From PubChem BioAssay AID1963874 (Molecular Pharmacology Branch, DTP, NCI, 2024)

Test system: 253994-281-T-J1-PDC KRAS-mutant spheroids with HUVEC/MSC, viability
Test: Anticancer human tumor 253994-281-T-J1-PDC patient-derived colorectal carcinoma cell line growth inhibition [KRAS2]
Conditions: for IC50: curve of first compound; for viability, T/C: stronger effect = lower value
Procedure, shortened: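 Combination screen of spheroid viability in tumor-cell co-cultures with endothelial (HUVEC) and mesenchymal stem cell stroma. Each agent was tested in half-log dilutions, topping at clinical Cmax or at 10 microM without a known Cmax.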

[1] = second compound 0.1 µM, first compound 0.0316 µM
[2] = second compound 0.1 µM, first compound 0.1 µM
[3] = second compound 0.1 µM, first compound 0.316 µM
[4] = second compound 0.1 µM, first compound 1 µM
[5] = second compound 0.1 µM, first compound 3.16 µM
[6] = second compound 0.1 µM, first compound 10 µM
[7] = second compound 0.316 µM, first compound 0.0316 µM
[8] = second compound 0.316 µM, first compound 0.1 µM
[9] = second compound 0.316 µM, first compound 0.316 µM
[10] = second compound 0.316 µM, first compound 1 µM
[11] = second compound 0.316 µM, first compound 3.16 µM
[12] = second compound 0.316 µM, first compound 10 µM
[13] = second compound 1 µM, first compound 0.0316 µM
[14] = second compound 1 µM, first compound 0.1 µM
[15] = second compound 1 µM, first compound 0.316 µM
[16] = second compound 1 µM, first compound 1 µM
[17] = second compound 1 µM, first compound 3.16 µM
[18] = second compound 1 µM, first compound 10 µM
[19] = second compound 3.16 µM, first compound 0.0316 µM
[20] = second compound 3.16 µM, first compound 0.1 µM
[21] = second compound 3.16 µM, first compound 0.316 µM
[22] = second compound 3.16 µM, first compound 1 µM
[23] = second compound 3.16 µM, first compound 3.16 µM
[24] = second compound 3.16 µM, first compound 10 µM
[25] = second compound 10 µM, first compound 0.0316 µM
[26] = second compound 10 µM, first compound 0.1 µM
[27] = second compound 10 µM, first compound 0.316 µM
[28] = second compound 10 µM, first compound 1 µM
[29] = second compound 10 µM, first compound 3.16 µM
[30] = second compound 10 µM, first compound 10 µM
[31] = second compound 0.1 µM, first compound 0.000316 µM
[32] = second compound 0.1 µM, first compound 0.001 µM
[33] = second compound 0.1 µM, first compound 0.00316 µM
[34] = second compound 0.1 µM, first compound 0.01 µM
[35] = second compound 0.316 µM, first compound 0.000316 µM
[36] = second compound 0.316 µM, first compound 0.001 µM
[37] = second compound 0.316 µM, first compound 0.00316 µM
[38] = second compound 0.316 µM, first compound 0.01 µM
[39] = second compound 1 µM, first compound 0.000316 µM
[40] = second compound 1 µM, first compound 0.001 µM
[41] = second compound 1 µM, first compound 0.00316 µM
[42] = second compound 1 µM, first compound 0.01 µM
[43] = second compound 3.16 µM, first compound 0.000316 µM
[44] = second compound 3.16 µM, first compound 0.001 µM
[45] = second compound 3.16 µM, first compound 0.00316 µM
[46] = second compound 3.16 µM, first compound 0.01 µM
[47] = second compound 10 µM, first compound 0.000316 µM
[48] = second compound 10 µM, first compound 0.001 µM
[49] = second compound 10 µM, first compound 0.00316 µM
[50] = second compound 10 µM, first compound 0.01 µM
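Also: spheroids exposed to agents for seven days before readout.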
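For viability, T/C in this document: percent of DMSO vehicle control viability.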

CC1OCC2(CCN(c3cnc(Sc4ccnc(N)c4Cl)c(N)n3)CC2)C1N (stereo not given) + CNCc1ccccc1-c1csc(C(C)Nc2nc(C)nc3cc(OC)c(OC)cc23)c1
IC50 (second compound 0.1 µM): > 10 µM
IC50 (second compound 0.316 µM): > 10 µM
IC50 (second compound 1 µM): 4.61 µM
IC50 (second compound 3.16 µM): < 0.0316 µM
IC50 (second compound 10 µM): < 0.0316 µM
viability, T/C [1]: 93%
viability, T/C [2]: 96.7%
viability, T/C [3]: 93.3%
viability, T/C [4]: 87.9%
viability, T/C [5]: 79.1%
viability, T/C [6]: 51.8%
viability, T/C [7]: 94.7%
viability, T/C [8]: 83.9%
viability, T/C [9]: 85.6%
viability, T/C [10]: 82.5%
viability, T/C [11]: 68.1%
viability, T/C [12]: 51.8%
viability, T/C [13]: 90.3%
viability, T/C [14]: 95.2%
viability, T/C [15]: 78.7%
viability, T/C [16]: 64.8%
viability, T/C [17]: 60.9%
viability, T/C [18]: 36.5%
viability, T/C [19]: 43.8%
viability, T/C [20]: 28%
viability, T/C [21]: 31.1%
viability, T/C [22]: 31.2%
viability, T/C [23]: 24.8%
viability, T/C [24]: 0.81%
viability, T/C [25]: 0.21%
viability, T/C [26]: 0.25%
viability, T/C [27]: 0.22%
viability, T/C [28]: 0.19%
viability, T/C [29]: 0.23%
viability, T/C [30]: 0.21%

CC(=O)Nc1cccc(-n2c(=O)n(C3CC3)c(=O)c3c(Nc4ccc(I)cc4F)n(C)c(=O)c(C)c32)c1 + COc1cc2nc(C)nc(NC(C)c3cc(N)cc(C(F)(F)F)c3)c2cc1OC1CCOC1
IC50 (second compound 0.1 µM): 0.000473 µM
IC50 (second compound 0.316 µM): 0.000318 µM
IC50 (second compound 1 µM): 0.000331 µM
IC50 (second compound 3.16 µM): 0.000154 µM
IC50 (second compound 10 µM): 0.000173 µM
viability, T/C (second compound 0.1 µM, first compound 0.0001 µM): 82.8%
viability, T/C [31]: 60.4%
viability, T/C [32]: 30.9%
viability, T/C [33]: 14.4%
viability, T/C [34]: 10.5%
viability, T/C [1]: 5.47%
viability, T/C (second compound 0.316 µM, first compound 0.0001 µM): 68%
viability, T/C [35]: 50.7%
viability, T/C [36]: 27.9%
viability, T/C [37]: 14.8%
viability, T/C [38]: 10.7%
viability, T/C [7]: 5.1%
viability, T/C (second compound 1 µM, first compound 0.0001 µM): 59.9%
viability, T/C [39]: 51.7%
viability, T/C [40]: 23.5%
viability, T/C [41]: 11.6%
viability, T/C [42]: 9.28%
viability, T/C [13]: 4.8%
viability, T/C (second compound 3.16 µM, first compound 0.0001 µM): 59.7%
viability, T/C [43]: 34%
viability, T/C [44]: 20.2%
viability, T/C [45]: 10.6%
viability, T/C [46]: 8.21%
viability, T/C [19]: 4.13%
viability, T/C (second compound 10 µM, first compound 0.0001 µM): 74.6%
viability, T/C [47]: 21.5%
viability, T/C [48]: 13.6%
viability, T/C [49]: 8.98%
viability, T/C [50]: 5.81%
viability, T/C [25]: 2.33%

CC(=O)OC12COC1CC(O)C1(C)C(=O)C(O)C3=C(C)C(OC(=O)C(O)C(NC(=O)OC(C)(C)C)c4ccccc4)CC(O)(C(OC(=O)c4ccccc4)C21)C3(C)C (stereo not given) + COc1cc2nc(C)nc(NC(C)c3cc(N)cc(C(F)(F)F)c3)c2cc1OC1CCOC1
IC50 (second compound 0.1 µM): 0.0167 µM
IC50 (second compound 0.316 µM): < 0.01 µM
IC50 (second compound 1 µM): < 0.01 µM
IC50 (second compound 3.16 µM): < 0.01 µM
IC50 (second compound 10 µM): < 0.01 µM
viability, T/C [34]: 61.3%
viability, T/C [1]: 35.7%
viability, T/C [2]: 26.1%
viability, T/C [3]: 20.6%
viability, T/C [4]: 22.6%
viability, T/C [5]: 19.6%
viability, T/C [38]: 46.2%
viability, T/C [7]: 26.9%
viability, T/C [8]: 21.4%
viability, T/C [9]: 19.7%
viability, T/C [10]: 18.8%
viability, T/C [11]: 19.1%
viability, T/C [42]: 35.9%
viability, T/C [13]: 41.4%
viability, T/C [14]: 21.6%
viability, T/C [15]: 19.9%
viability, T/C [16]: 19.7%
viability, T/C [17]: 22.8%
viability, T/C [46]: 25.8%
viability, T/C [19]: 21.6%
viability, T/C [20]: 17.4%
viability, T/C [21]: 18%
viability, T/C [22]: 20.1%
viability, T/C [23]: 20.6%
viability, T/C [50]: 20.1%
viability, T/C [25]: 22.4%
viability, T/C [26]: 19.2%
viability, T/C [27]: 23.3%
viability, T/C [28]: 20.2%
viability, T/C [29]: 25.4%

CN(C)C/C=C/C(=O)Nc1cc2c(Nc3ccc(F)c(Cl)c3)ncnc2cc1O[C@H]1CCOC1 + COc1cc2nc(C)nc(NC(C)c3cc(N)cc(C(F)(F)F)c3)c2cc1OC1CCOC1
IC50 (second compound 0.1 µM): > 0.1 µM
IC50 (second compound 0.316 µM): > 0.1 µM
IC50 (second compound 1 µM): > 0.1 µM
IC50 (second compound 3.16 µM): > 0.1 µM
IC50 (second compound 10 µM): > 0.1 µM
viability, T/C [31]: 100%
viability, T/C [32]: 98.2%
viability, T/C [33]: 108%
viability, T/C [34]: 85.8%
viability, T/C [1]: 90%
viability, T/C [2]: 67.7%
viability, T/C [35]: 86.3%
viability, T/C [36]: 97.8%
viability, T/C [37]: 86.8%
viability, T/C [38]: 81.5%
viability, T/C [7]: 73.5%
viability, T/C [8]: 57.8%
viability, T/C [39]: 84.4%
viability, T/C [40]: 88.7%
viability, T/C [41]: 116%
viability, T/C [42]: 90%
viability, T/C [13]: 91.2%
viability, T/C [14]: 69.8%
viability, T/C [43]: 94.8%
viability, T/C [44]: 87.4%
viability, T/C [45]: 81.3%
viability, T/C [46]: 86.8%
viability, T/C [19]: 61.2%
viability, T/C [20]: 55.2%
viability, T/C [47]: 83.5%
viability, T/C [48]: 84.1%
viability, T/C [49]: 82.9%
viability, T/C [50]: 79.2%
viability, T/C [25]: 68.8%
viability, T/C [26]: 54.5%

COC(=O)c1ccc2c(C(=Nc3ccc(N(C)C(=O)CN4CCN(C)CC4)cc3)c3ccccc3)c(O)[nH]c2c1 + COc1cc2nc(C)nc(NC(C)c3cc(N)cc(C(F)(F)F)c3)c2cc1OC1CCOC1
IC50 (second compound 0.1 µM): 5.28 µM
IC50 (second compound 0.316 µM): 5.43 µM
IC50 (second compound 1 µM): 4.65 µM
IC50 (second compound 3.16 µM): 2.29 µM
IC50 (second compound 10 µM): 0.721 µM
viability, T/C [1]: 100%
viability, T/C [2]: 103%
viability, T/C [3]: 103%
viability, T/C [4]: 85.1%
viability, T/C [5]: 85.6%
viability, T/C [6]: 9.83%
viability, T/C [7]: 93.6%
viability, T/C [8]: 75%
viability, T/C [9]: 79.2%
viability, T/C [10]: 91.6%
viability, T/C [11]: 74.2%
viability, T/C [12]: 22.8%
viability, T/C [13]: 71.9%
viability, T/C [14]: 71.6%
viability, T/C [15]: 73.1%
viability, T/C [16]: 85.1%
viability, T/C [17]: 71.3%
viability, T/C [18]: 7.12%
viability, T/C [19]: 73.4%
viability, T/C [20]: 75.4%
viability, T/C [21]: 84.4%
viability, T/C [22]: 74.5%
viability, T/C [23]: 40.2%
viability, T/C [24]: 0.2%
viability, T/C [25]: 68.6%
viability, T/C [26]: 79.1%
viability, T/C [27]: 48.6%
viability, T/C [28]: 54.4%
viability, T/C [29]: 12.4%
viability, T/C [30]: 0.21%

O=C(c1cc(Cc2n[nH]c(=O)c3ccccc23)ccc1F)N1CCN(C(=O)C2CC2)CC1 + COc1cc2nc(C)nc(NC(C)c3cc(N)cc(C(F)(F)F)c3)c2cc1OC1CCOC1
IC50 (second compound 0.1 µM): > 10 µM
IC50 (second compound 0.316 µM): > 10 µM
IC50 (second compound 1 µM): > 10 µM
IC50 (second compound 3.16 µM): > 10 µM
IC50 (second compound 10 µM): > 10 µM
viability, T/C [1]: 86.4%
viability, T/C [2]: 88.5%
viability, T/C [3]: 85.3%
viability, T/C [4]: 91.2%
viability, T/C [5]: 96.1%
viability, T/C [6]: 106%
viability, T/C [7]: 92.3%
viability, T/C [8]: 82.5%
viability, T/C [9]: 81.1%
viability, T/C [10]: 94.3%
viability, T/C [11]: 90.7%
viability, T/C [12]: 68.6%
viability, T/C [13]: 102%
viability, T/C [14]: 87.7%
viability, T/C [15]: 92.4%
viability, T/C [16]: 103%
viability, T/C [17]: 115%
viability, T/C [18]: 90.2%
viability, T/C [19]: 92.7%
viability, T/C [20]: 90.5%
viability, T/C [21]: 89.3%
viability, T/C [22]: 129%
viability, T/C [23]: 74.5%
viability, T/C [24]: 86.6%
viability, T/C [25]: 93.6%
viability, T/C [26]: 98.7%
viability, T/C [27]: 90.8%
viability, T/C [28]: 84.3%
viability, T/C [29]: 99%
viability, T/C [30]: 106%
